Assay results reported in patent US20240327393A1 (SIRONAX LTD., priority 2021, published 2024).

What follows are compounds tested on HT-1080 (ATCC, CCL-121) cells (assay: HT-1080 cell viability assay with ferroptosis inducer RSL3 (Cell Titer-Glo)). Conditions: Homo sapiens; HT-1080 cells treated with RSL3; 3-fold, 10-point dilution, 1.1 μM highest concentration; Table 2; read-out: EC50 (nM), ferroptosis inhibitory activity.
Format: cell-based
How it was run: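 HT-1080 cells (6000 per well) were cultured overnight at 37 °C, then co-treated with RSL3 and compound in a 3-fold, 10-point series topping at 1.1 μM. Viability was read by CellTiter-Glo luminescence and normalized to untreated controls. EC50 came from a sigmoidal non-linear regression fit.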
In the case of Cn1c(=O)n(C)c2ncc(Nc3ccc(N4CCC(C(F)(F)F)CC4)cc3)cc21 [Compound 343, 1,3-dimethyl-6-((4-(4-(trifluoromethyl)piperidin-1-yl)phenyl)amino)-1,3-dihydro-2H-imidazo[4,5-b]pyridin-2-one], the EC50 is reported as 0.1 to 100 nM.
Work on CC1CN(c2ccc(Nc3ccc4nn(C)cc4c3)cc2)CC(C)O1 (stereo not shown) [Compound 423, N-(4-(2,6-dimethylmorpholino)phenyl)-2-methyl-2H-indazol-5-amine] yielded an EC50 of 0.1 to 100 nM.
With CC1CCN(c2ccc(Nc3ccc4c(c3)C(C)(C)CN4C)cc2)CC1 [Compound 311, 1,3,3-trimethyl-N-(4-(4-methylpiperidin-1-yl)phenyl)indolin-5-amine] the EC50 was 0.1 to 100 nM.
For CC1CCN(c2ccc(Nc3ccc4c(c3)c(C(=O)O)cn4C)cc2)CC1 [Compound 353, 1-methyl-5-((4-(4-methylpiperidin-1-yl)phenyl)amino)-1H-indole-3-carboxylic acid], the EC50 was 0.1 to 100 nM.
CNCCn1c(=O)oc2ccc(Nc3ccc(N4CC(C)OC(C)C4)cc3)cc21 (stereo not shown) [Compound 427, 5-((4-(2,6-dimethylmorpholino)phenyl)amino)-3-(2-(methylamino)ethyl) benzo[d]oxazol-2(3H)-one] gave an EC50 of 0.1 to 100 nM.
COc1cc(Nc2ccc3c(c2)n(C)c(=O)n3C)cnc1N1CCC(C(F)(F)F)CC1 [Compound 372, 5-((5-methoxy-6-(4-(trifluoromethyl)piperidin-1-yl)pyridin-3-yl)amino)-1,3-dimethyl-1,3-dihydro-2H-benzo[d]imidazol-2-one] showed an EC50 of 0.1 to 100 nM.
With CN1Cc2cc(Nc3ccc(N4CCCCC4)c(N(C)C)c3)ccc2C1=O [Compound 303, 5-((3-(dimethylamino)-4-(piperidin-1-yl)phenyl)amino)-2-methylisoindolin-1-one] the EC50 was 0.1 to 100 nM.
Work on Cn1c(=O)[nH]c2cc(Nc3ccc(N4CCC(C(F)(F)F)CC4)cc3)ccc21 [Compound 363, 1-methyl-5-((4-(4-(trifluoromethyl)piperidin-1-yl)phenyl)amino)-1,3-dihydro-2H-benzo[d]imidazol-2-one] yielded an EC50 of 0.1 to 100 nM.
CN(C)CCn1c(=O)oc2ccc(Nc3ccc(N4CCC(C(F)(F)F)CC4)cc3)cc21 [Compound 429, 3-(2-(dimethylamino)ethyl)-5-((4-(4-(trifluoromethyl)piperidin-1-yl)phenyl)amino)benzo[d]oxazol-2(3H)-one] gave an EC50 of 0.1 to 100 nM.
Work on CN1Cc2cc(Nc3ccc(N4CCC(C(F)(F)F)CC4)cc3)cnc2C1=O [Compound 194, 6-methyl-3-((4-(4-(trifluoromethyl)piperidin-1-yl)phenyl)amino)-5,6-dihydro-7H-pyrrolo[3,4-b]pyridin-7-one] yielded an EC50 of 0.1 to 100 nM.
For Cn1c(=O)oc2ccc(Nc3ccc(N4CCC(C(F)(F)F)CC4)cc3)cc21 [Compound 349, 3-methyl-5-((4-(4-(trifluoromethyl)piperidin-1-yl)phenyl)amino)benzo[d]oxazol-2(3)-one], the EC50 was 0.1 to 100 nM.
Cn1c(=O)c2ccc(Nc3ccc(N4CCC(C(F)(F)F)CC4)c(F)c3)cc2n1C(=O)OC(C)(C)C [Compound 216, tert-butyl 6-((3-fluoro-4-(4-(trifluoromethyl)piperidin-1-yl)phenyl)amino)-2-methyl-3-oxo-2,3-dihydro-1H-indazole-1-carboxylate] showed an EC50 of 0.1 to 100 nM.
O=c1[nH]c2cc(Nc3ccc(N4CCC(C(F)(F)F)CC4)cc3)ccc2o1 [Compound 433, 5-((4-(4-(trifluoromethyl)piperidin-1-yl)phenyl)amino) benzo[d]oxazol-2(3H)-one] was tested, and the EC50 was 0.1 to 100 nM.
In the case of O=C1c2ccc(Nc3ccc(N4CCC(C(F)(F)F)CC4)cc3)cc2CN1CC=C(F)F [Compound 215, 2-(3,3-difluoroallyl)-5-((4-(4-(trifluoromethyl)piperidin-1-yl)phenyl)amino)isoindolin-1-one], the EC50 is reported as 0.1 to 100 nM.
Compound Cn1nnc2ccc(Nc3ccc(N4CCC(C(F)(F)F)CC4)cc3)cc21 [Compound 314, 1-methyl-N-(4-(4-(trifluoromethyl)piperidin-1-yl)phenyl)-1H-benzo[d][1,2,3]triazol-6-amine] has an EC50 of 0.1 to 100 nM.
For CC1CC(c2ccc(Nc3ccc4c(c3)OCC(=O)N4C)cc2)CC(C)O1 (stereo not shown) [Compound 64, 7-((4-(2,6-dimethyltetrahydro-2H-pyran-4-yl)phenyl)amino)-4-methyl-2H-benzo[b][1,4]oxazin-3(4H)-one], the EC50 was 0.1 to 100 nM.
For CCN1Cc2ccc(Nc3ccc(N4CCC(C(F)(F)F)CC4)cc3)cc2C1 [Compound 175, 2-ethyl-N-(4-(4-(trifluoromethyl)piperidin-1-yl)phenyl)isoindolin-5-amine], the EC50 was 0.1 to 100 nM.
Compound CNCCCN1C(=O)COc2cc(Nc3ccc(N4CCC(C(F)(F)F)CC4)cc3)ccc21 [Compound 41, 4-(3-(methylamino)propyl)-7-((4-(4-(trifluoromethyl)piperidin-1-yl)phenyl)amino)-2H-benzo[b][1,4]oxazin-3(4H)-one] has an EC50 of 0.1 to 100 nM.
Cn1cc(C(N)=O)c2cc(Nc3ccc(N4CCC(C(F)(F)F)CC4)cc3)ccc21 [Compound 383, 1-methyl-5-((4-(4-(trifluoromethyl)piperidin-1-yl)phenyl)amino)-1H-indole-3-carboxamide] was tested, and the EC50 was 0.1 to 100 nM.
With CN1C(=O)OCc2cc(Nc3ccc(N4CCC(C(F)(F)F)CC4)cc3)ccc21 [Compound 128, 1-methyl-6-((4-(4-(trifluoromethyl)piperidin-1-yl)phenyl)amino)-1,4-dihydro-2H-benzo[d][1,3]oxazin-2-one] the EC50 was 0.1 to 100 nM.
Compound CN1Cc2cc(Nc3ccc(N4CCC(C(F)(F)F)CC4)cc3)ccc2N(C)C1=O [Compound 112, 1,3-dimethyl-6-((4-(4-(trifluoromethyl)piperidin-1-yl)phenyl)amino)-3,4-dihydroquinazolin-2(1H)-one] has an EC50 of 0.1 to 100 nM.
In the case of NCCc1cc2ccc(Nc3ccc(N4CCC(C(F)(F)F)CC4)cc3)cc2oc1=O [Compound 125, 3-(2-aminoethyl)-7-((4-(4-(trifluoromethyl)piperidin-1-yl)phenyl)amino)-2H-chromen-2-one], the EC50 is reported as 0.1 to 100 nM.
COC1(C(F)(F)F)CCN(c2ccc(Nc3ccc4oc(=O)n(C)c4c3)cc2)CC1 [Compound 390, 5-((4-(4-methoxy-4-(trifluoromethyl)piperidin-1-yl)phenyl)amino)-3-methylbenzo[d]oxazol-2(3H)-one] was tested, and the EC50 was 0.1 to 100 nM.
Work on CC1CCN(c2ccc(Nc3ccc4nnn(C)c4c3)cc2)CC1 [Compound 321, 1-methyl-N-(4-(4-methylpiperidin-1-yl)phenyl)-1H-benzo[d][1,2,3]triazol-6-amine] yielded an EC50 of 0.1 to 100 nM.
CN1Cc2cc(Nc3ccc(N4CCC(C(F)(F)F)CC4)cc3)ccc2C1=N [Compound 291, 1-imino-2-methyl-N-(4-(4-(trifluoromethyl)piperidin-1-yl)phenyl) isoindolin-5-amine] showed an EC50 of 0.1 to 100 nM.
Compound CC1CN(c2ccc(Nc3ccc4c(c3)OCC(=O)N4C)c(F)c2)CC(C)O1 (stereo not shown) [Compound 74, 7-((4-(2,6-dimethylmorpholino)-2-fluorophenyl)amino)-4-methyl-2H-benzo[b][1,4]oxazin-3(4H)-one] has an EC50 of 0.1 to 100 nM.
COc1ncc(Nc2ccc3c(c2)n(C)c(=O)n3C)cn1 [Compound 319, 5-((2-methoxypyrimidin-5-yl)amino)-1,3-dimethyl-1,3-dihydro-2H-benzo[d] imidazole-2-one] was tested, and the EC50 was 0.1 to 100 nM.
Compound Cn1c(=O)n(C)c2cc(Nc3ccc(N4CCC(C(F)(F)F)CC4)cc3)ccc21 [Compound 220, 1,3-dimethyl-5-((4-(4-(trifluoromethyl)piperidin-1-yl)phenyl)amino)-1,3-dihydro-2H-benzo[d]imidazol-2-one] has an EC50 of 0.1 to 100 nM.

Same assay, conditions: Homo sapiens; HT-1080 cells treated with RSL3; 3-fold, 10-point dilution, 1.1 μM highest concentration; Table 3; read-out: EC50 (nM), ferroptosis inhibitory activity
Cc1cc(N2CC(F)(F)C2)ccc1Nc1ccc2c(c1)OCC(N)C(=O)N2 (stereo not shown) [Compound 627, 3-amino-8-((4-(3,3-difluoroazetidin-1-yl)-2-methylphenyl)amino)-2,3-dihydrobenzo[b][1,4]oxazepin-4(5H)-one] gave an EC50 of 0.1 to 100 nM.
With O=C1COc2cc(Nc3ccc(N4CCC(F)(F)CC4)cc3)ccc2N1 [Compound 524, 7-((4-(4,4-difluoropiperidin-1-yl)phenyl)amino)-2H-benzo[b][1,4]oxazin-3(4H)-one] the EC50 was 0.1 to 100 nM.
Cc1cc(N2CCC(C(F)(F)F)CC2)ccc1Nc1ccc2[nH]cnc2c1 [Compound 567] gave an EC50 of 0.1 to 100 nM.
With O=C1CSc2cc(Nc3ccc(N4CCC(C(F)(F)F)CC4)cc3)ccc2N1 [Compound 582, 7-((4-(4-(trifluoromethyl)piperidin-1-yl)phenyl)amino)-2H-benzo[b][1,4]thiazin-3(4H)-one] the EC50 was 0.1 to 100 nM.
COC(C)(C)C1CCN(c2ccc(Nc3ccc4c(c3)OCC(=O)N4)cc2)CC1 [Compound 560, 7-((4-(4-(2-methoxypropan-2-yl)piperidin-1-yl)phenyl)amino)-2H-benzo[b][1,4]oxazin-3(4H)-one] showed an EC50 of 0.1 to 100 nM.
Cc1cc(OC(F)F)ccc1Nc1ccc2c(c1)OCC(=O)N2 [Compound 653, 7-[4-(difluoromethoxy)-2-methyl-anilino]-4H-1,4-benzoxazin-3-one] gave an EC50 of 0.1 to 100 nM.
Work on Cc1cc(N2CCC(C(F)(F)F)CC2)ccc1Nc1ccc2c(c1)OCC(=O)NC2 [Compound 608, 8-((2-methyl-4-(4-(trifluoromethyl)piperidin-1-yl)phenyl)amino)-4,5-dihydrobenzo[f][1,4]oxazepin-3(2H)-one] yielded an EC50 of 0.1 to 100 nM.
In the case of COC1(C)CN(c2ccc(Nc3ccc4c(c3)OCC(=O)N4)c(C)c2)C1 [Compound 639, 7-((4-(3-methoxy-3-methylazetidin-1-yl)-2-methylphenyl)amino)-2H-benzo[b][1,4] oxazin-3(4H)-one], the EC50 is reported as 0.1 to 100 nM.
For Cc1c(Nc2ccc3c(c2)OCC(=O)N3C)ccc(N2CCC(C(F)(F)F)CC2)c1C#N [Compound 492, 2-methyl-3-((4-methyl-3-oxo-3,4-dihydro-2H-benzo[b][1,4]oxazin-7-yl)amino)-6-(4-(trifluoromethyl)piperidin-1-yl)benzonitrile], the EC50 was 0.1 to 100 nM.
